Assay results published in patent US10316035B2, “Triazolopyridine inhibitors of myeloperoxidase” (BRISTOL-MYERS SQUIBB COMPANY, priority 2015, dated 2019).

Assays:
[1] = target: T1, myeloperoxidase (MPO) (Homo sapiens, UniProt P05164); assay: MPO peroxidation assay (Amplex Red assay); format: biochemical; details: MPO peroxidation, potency range class; read-out: Amplex Red IC50
T1 sequence (P05164 49-745): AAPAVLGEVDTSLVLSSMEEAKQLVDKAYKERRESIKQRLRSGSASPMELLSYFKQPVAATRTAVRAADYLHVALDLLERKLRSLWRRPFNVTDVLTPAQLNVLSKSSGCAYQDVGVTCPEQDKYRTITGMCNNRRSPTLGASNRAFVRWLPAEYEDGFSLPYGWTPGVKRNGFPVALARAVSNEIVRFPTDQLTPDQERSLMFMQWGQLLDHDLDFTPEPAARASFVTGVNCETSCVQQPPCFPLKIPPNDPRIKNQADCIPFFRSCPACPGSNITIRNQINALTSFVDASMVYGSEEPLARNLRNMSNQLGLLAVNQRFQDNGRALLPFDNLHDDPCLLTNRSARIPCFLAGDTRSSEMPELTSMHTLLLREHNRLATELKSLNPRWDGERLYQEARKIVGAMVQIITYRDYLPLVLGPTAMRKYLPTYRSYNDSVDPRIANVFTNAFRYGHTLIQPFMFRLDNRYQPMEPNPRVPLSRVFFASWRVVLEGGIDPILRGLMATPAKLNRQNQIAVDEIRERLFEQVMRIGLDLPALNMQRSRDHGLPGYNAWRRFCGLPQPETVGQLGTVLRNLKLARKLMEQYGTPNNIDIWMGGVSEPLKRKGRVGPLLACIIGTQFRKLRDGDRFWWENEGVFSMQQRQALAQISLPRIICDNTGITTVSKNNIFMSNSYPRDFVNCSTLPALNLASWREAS
How it was run: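 MPO (200 pM) with 40 nM H2O2 was preincubated 10 min at room temperature with inhibitor in 100 mM KPi pH 7.4. A mix of Amplex Red (200 μM) and H2O2 (10 mM) was then added and resorufin fluorescence read kinetically for 15 min. Slopes over 180–540 s gave % inhibition and IC50 via a four-parameter Hill fit.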

[2] = target: T2, EPX (eosinophil peroxidase) (Homo sapiens, UniProt P11678); assay: EPX bromination assay; format: biochemical
T2 construct: purchased Lee Biosolutions 342-60
T2 sequence (P11678 140-715): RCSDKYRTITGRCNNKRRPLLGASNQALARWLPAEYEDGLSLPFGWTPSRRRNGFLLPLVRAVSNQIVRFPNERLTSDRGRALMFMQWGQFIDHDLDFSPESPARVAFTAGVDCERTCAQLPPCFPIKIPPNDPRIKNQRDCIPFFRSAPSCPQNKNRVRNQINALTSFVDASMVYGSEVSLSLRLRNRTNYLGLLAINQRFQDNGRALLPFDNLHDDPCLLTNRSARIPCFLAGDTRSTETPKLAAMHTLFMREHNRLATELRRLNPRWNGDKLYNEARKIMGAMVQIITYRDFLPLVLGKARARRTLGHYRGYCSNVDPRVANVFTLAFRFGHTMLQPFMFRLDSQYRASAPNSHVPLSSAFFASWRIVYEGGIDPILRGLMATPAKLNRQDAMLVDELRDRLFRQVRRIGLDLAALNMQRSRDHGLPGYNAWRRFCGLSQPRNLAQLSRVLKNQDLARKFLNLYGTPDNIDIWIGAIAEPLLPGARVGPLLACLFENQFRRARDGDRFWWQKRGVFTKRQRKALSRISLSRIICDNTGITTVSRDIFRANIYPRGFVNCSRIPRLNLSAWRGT
Experimental: [formula] where A=minimal Y value (activity level of inhibited sample), B=maximal Y value (activity level of uninhibited sample), C=Log IC50, D=Hill Slope, x=concentration of inhibitor. EPX Bromination Assay
EPX bromination activity was measured in 100 mM KPi (pH 7.4) by monitoring the H2O2 catalyzed formation of 3-bromo tyrosine from tyrosine and potassium bromide. A 50 μl mixture of 0.6 μM EPX (Lee Biosolutions Cat#342-60) was added to 100 nL inhibitor in 100% DMSO in a 384 well REMP plate. Enzyme and compound were preincubated for ten minutes at room temperature.
After the ten minute preincubation of enzyme and inhibitor, 25 μL of a mixture containing 400 μM tyrosine and 1200 μM potassium bromide was added to the plate containing enzyme and inhibitor, followed by the addition of 25 μl of 20 μM H2O2. The reaction was allowed to proceed for 15 minutes, at which time it was quenched with 10 μL of 20% TCA. The final concentrations of all components were 0.3 μM EPX, 100 μM tyrosine, […], 5 μM H2O2, 0.1% DMSO, 2.0% TCA.
IC50 values were determined by determining the peak areas of 3-bromotyrosine present at the end of the 15 minute reaction and fitting the data to:
[formula] where A=minimal Y value (activity level of inhibited sample), B=maximal Y value (activity level of uninhibited sample), C=Log IC50, D=Hill Slope, x=concentration of inhibitor.
Reversed-phase analysis was performed on a Waters Acquity Ultra Performance LC system using an Acquity UPLC BEH C18 […], 2.1×50 mm analytical column. The column was maintained at 60° C. Samples were eluted using a gradient of 0%-100% B over 2.5 minutes, followed by equilibration with 100% A for 1 minute where A consisted of 0.1% TFA and B consisted of 90% MeOH/0.1% TFA at a flow rate of 0.6 mL/min. The retention time of 3-bromo tyrosine was 1.22 min.

Compound: Nc1cc(OCc2c(F)cccc2F)c2nn[nH]c2n1 [Example 54, 7-(2,6-Difluorobenzyloxy)-3H-[1,2,3]triazolo[4,5-b]pyridin-5-amine]
- IC50 [1]: 1 to 100 nM
- IC50 [2]: 10 nM
